Data set [1] has as its system retinal degeneration mouse model. As to the kind of experiment: Electroretinogram (ERG) in blue LED-induced retinal degeneration mouse model. The class given is in vivo, albino BALB/c mice. The note with it: compound 24 nM, Com. Ex. 4 25 mg/kg; for Wavelength enhanced multiple compared to normal saline-treated group, Average value: average of a-wave and b-wave, intravitreal; for Wavelength enhanced multiple compared to normal saline-treated group, a-wave / Wavelength enhanced multiple compared to normal saline-treated group, b-wave: single intravitreal injection 1 hour after LED exposure. The protocol:
In order to fabricate a retinal degeneration model, 7-week-old male albino BALB/c mice were used. Three mice were randomly assigned to each test group, and light and dark were maintained at 12-hour intervals. Each mouse was dark-adapted for 24 hours and then the pupils were dilated with 0.5% tropicamide and 0.5% phenylephrine hydrochloride eye drops (Santen, Osaka, Japan) 30 minutes before blue LED exposure. Unanesthetized mice were exposed to 2,000 lux of a blue LED (460 ± 10 nm) for 2 hours in a cage with reflective interiors. The light intensity was measured using an LED photometer (model TM-201L, TENMARS Electronics, Taipei, Taiwan). After exposure to blue LED, the mice were kept in the dark for 24 hours and then resumed on a 12-hour light/dark cycle for 3 days.
In a test substance control test, mice with retinal degeneration were divided into a normal saline-administered group and a compound-administered group (24 nM) of the present disclosure, and 3 mice were randomly assigned to each test group. A positive control test was divided into a normal saline-administered group and an Eyela (25 mg/kg mouse body weight)-administered group (Comparative Example 4), and three mice were randomly assigned to each test group.
All test groups were administered as a single dose by intravitreal injection 1 hour after LED exposure.
That is, mice were stored in a completely dark room for 16 hours before ERG recordings. All animals were anesthetized intraperitoneally with zolazepam (20 mg/kg) and xylazine (7.5 mg/kg). The cornea was coated with hydroxypropyl methylcellulose gel and covered with a gold ring contact electrode. Ground and reference electrodes were disposed subcutaneously on the tail and ears, respectively. Stimuli were short white flashes delivered through a Ganzfeld stimulator (UTAS-3000; LKC Technologies, Gaithersburg, MD, USA). The signal was amplified and filtered through a digital band-pass filter in the range of 5 to 300 Hz to generate a and b waves. Scotopic ERG, and rod-mediated responses were obtained at increasing light intensities of 0.025 and 3.96 cd/s • m^2. Photopic, cone-mediated responses were obtained after 5-min light adaptation to background light intensity. The recordings were obtained at the light intensity of 6.28 cd/s • m^2. Each recording was the average of three responses obtained within a 15-second stimulation interval. A-wave amplitude was measured from a baseline to the maximum a-wave peak, and b-wave amplitude was measured from the maximum a-wave peak to the maximum b-wave peak.

Data set [2] concerns the target T1, BRD3 (BD1) (Homo sapiens, UniProt Q15059).
T1 construct: a bromodomain of BRD2 (BD1) and BRD3 (BD1), one of the BRD protein family; GST
The data set is described as follows: Binding inhibitory effect on BRD3 protein (same manner as Experimental Example 1-1).

The target in data set [3] is T2, BRD2 (BD1) (Homo sapiens, UniProt P25440).
T2 construct: a bromodomain of BRD2 (BD1) and BRD3 (BD1), one of the BRD protein family
T2 sequence (P25440 74-180 limits assumed, species assumed): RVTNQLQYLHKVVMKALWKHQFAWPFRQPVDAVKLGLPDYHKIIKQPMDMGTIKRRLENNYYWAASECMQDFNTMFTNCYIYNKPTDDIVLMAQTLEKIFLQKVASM
As to the kind of experiment: Binding inhibitory effect on BRD2 protein (AlphaScreen, GST-BRD2 (BD1) / biotinylated acetyl-histone H4 peptide). The note with it: 100 nM GST-BRD2 (BD1), 100 nM biotinylated acetyl-histone H4 (Lys5, 8, 12, 16) peptide.

Data set [4] concerns macular degeneration animal model. The data set is described as follows: Laser burn-induced macular degeneration animal model, OCT and FFA image analysis. Type of data set: in vivo, mouse. The note with it: compounds 0.022 µg/eye, Com. Ex. 4 20 µg/eye. The protocol: After the mouse was subjected to general anesthesia, the eye was applied with anesthetic eye drops to be subjected to additional local anesthesia and additionally induce mydriasis. A macular degeneration animal model was prepared by destroying the Bruch's membrane by inducing laser burn according to macular degeneration induction conditions. […] On day 11 of macular degeneration induction, the mice were subjected to general anesthesia and then injected intraperitoneally with a fluorescent contrast agent. The mouse was placed on the sacrifice table, lubricating gel was dropped into the corresponding eye, and an OCT lens was brought into contact with the mouse's cornea. Image analysis for fluorescein fundus angiography (FFA) and OCT was performed using the Image-J program.

Molecules are shown by their SMILES.

T1 sequence (Q15059 34-140 limits assumed, species assumed): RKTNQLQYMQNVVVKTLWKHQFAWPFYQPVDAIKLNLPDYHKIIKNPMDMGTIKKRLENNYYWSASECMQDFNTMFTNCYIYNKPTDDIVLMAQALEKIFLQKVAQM

Usually IC50 stands for the point on the concentration scale where inhibition reaches its midpoint. The low end stands for greater potency in that assay, the high end for weaker potency in that assay. Regarding `CN1Cc2c(cccc2-c2ccccc2-c2ccc(CNCc3cnn(C)c3)o2)C1=O` [Compound 18, 2-methyl-4-(2-(5-((((1-methyl-1H-pyrazole-4yl)methyl)amino)methyl)furan-2-yl)phenyl)isoindoline-1-one], in data set [1], the “Wavelength enhanced multiple compared to normal saline-treated group, Average value” came to 2.04; the “Wavelength enhanced multiple compared to normal saline-treated group, a-wave” value is given as 2.05; the “Wavelength enhanced multiple compared to normal saline-treated group, b-wave” value was 2.03. The compound also returned an IC50 in data set [2] of 2.67 µM. For the same compound, the IC50 in data set [3] came out at 6.51 µM.

Regarding `CNC(=O)C1(Cc2ccc(F)cc2)CCN(Cc2oc(-c3ccccc3-c3cccc4c3CN(C)C4=O)cc2C)CC1` [Compound 39, 2-methyl-4-(2-(5-((3-methyl(4-(4-fluorobenzyl)-4'-carboxamidyl)piperidine)methyl)furan-2-yl)phenyl)isoindoline-1-one], in data set [1], the “Wavelength enhanced multiple compared to normal saline-treated group, Average value” was 1.36; the “Wavelength enhanced multiple compared to normal saline-treated group, a-wave” value was found to be 1.21; the “Wavelength enhanced multiple compared to normal saline-treated group, b-wave” value worked out at 1.51. In data set [2], this compound yielded an IC50 of 4.16 µM. In addition, the IC50 in data set [3] amounted to 8.67 µM.

As to `CNC(=O)C1(Cc2ccc(F)cc2)CCN(Cc2ccc(-c3ccccc3-c3cccc4c3CN(C)C4=O)o2)CC1` [Compound 21, 2-methyl-4-(2-(5-(((4-(4-fluorobenzyl)-4'-carboxamidyl)piperidine)methyl)furan-2-yl)phenyl)isoindoline-1-one], in data set [1], the “Wavelength enhanced multiple compared to normal saline-treated group, Average value” is recorded as 2.30; the “Wavelength enhanced multiple compared to normal saline-treated group, a-wave” value is 2.17; the “Wavelength enhanced multiple compared to normal saline-treated group, b-wave” value is reported as 2.42. For the same compound, in data set [2], the 50% inhibitory concentration (IC50) was 1.16 µM. Also, in data set [3], the half-maximal inhibitory concentration (IC50) was found to be 13.9 µM.

With `CNC(=O)CC1C(=O)NCCN1Cc1oc(-c2ccccc2-c2cccc3c2CN(C)C3=O)cc1C` (centres unmarked) [Compound 42, 2-methyl-4-(2-(5-(3-methyl(N-methyl-2-(3-oxopiperazine-2yl)acetamidyl)methyl)furan-2-yl)phenyl)isoindoline-1-one], in data set [1], the “Wavelength enhanced multiple compared to normal saline-treated group, Average value” is on record as 1.32; the “Wavelength enhanced multiple compared to normal saline-treated group, a-wave” value stood at 1.25; the “Wavelength enhanced multiple compared to normal saline-treated group, b-wave” value is listed as 1.38. In data set [2], this compound gave a concentration for half-maximal inhibition (IC50) of 3.77 µM. In data set [3], this compound yielded an IC50 of 10.9 µM.

With `CCC1(C(=O)NC)CCCN(Cc2oc(-c3ccccc3-c3cccc4c3CN(C)C4=O)cc2C)C1` (centres unmarked) [Compound 40], in data set [1], the “Wavelength enhanced multiple compared to normal saline-treated group, Average value” is listed as 1.30; the “Wavelength enhanced multiple compared to normal saline-treated group, a-wave” value was determined as 1.16; the “Wavelength enhanced multiple compared to normal saline-treated group, b-wave” value is listed as 1.43. The compound further showed an IC50 in data set [2] of 3.96 µM. In data set [3], this compound yielded an IC50 of 10.6 µM.

Regarding `CNC(=O)C1(Cc2ccccc2)CCCN1Cc1ccc(-c2ccccc2-c2cccc3c2CN(C)C3=O)o1` (centres unmarked) [Compound 28], in data set [1], the “Wavelength enhanced multiple compared to normal saline-treated group, Average value” is 1.33; the “Wavelength enhanced multiple compared to normal saline-treated group, a-wave” value is listed as 1.31; the “Wavelength enhanced multiple compared to normal saline-treated group, b-wave” value is 1.35. In addition, the “Lesion size compared to negative control group (FFA)” value in data set [4] (FFA imaging, day 11, negative control = excipient) is 35.40%. In addition, the CTF value in data set [4] (FFA imaging, day 11 of macular degeneration induction, both eyes) is recorded as 325,936 Pixels. In addition, the “Lesion size compared to negative control group (OCT)” value in data set [4] (OCT imaging, day 11, negative control = excipient) was 51.99%. In addition, in data set [4] (OCT imaging, day 11 of macular degeneration induction, both eyes), the Volume of lesion is 1,132,542 µm^3. For the same compound, the concentration for half-maximal inhibition (IC50) in data set [2] turned out to be 4.36 µM. Besides, the concentration for half-maximal inhibition (IC50) in data set [3] is 10.9 µM.

As to `CN1Cc2c(cccc2-c2ccccc2-c2ccc(CN3CCOCC3)o2)C1=O` [Compound 13, 2-methyl-4-(2-(5-(morpholinomethyl)furan-2-yl)phenyl)isoindoline-1-one], in data set [1], the “Wavelength enhanced multiple compared to normal saline-treated group, Average value” was 1.33; the “Wavelength enhanced multiple compared to normal saline-treated group, a-wave” value turned out to be 1.29; the “Wavelength enhanced multiple compared to normal saline-treated group, b-wave” value was 1.36. In data set [2], this compound came in with an IC50 of 3.65 µM. Moreover, the IC50 in data set [3] came to 7.65 µM.

As to `CN1Cc2c(cccc2-c2ccccc2-c2ccc(COCN3CCC(F)(F)CC3)o2)C1=O` [Compound 37, 2-methyl-4-(2-(5-((((4,4-difluoropiperidine-1-yl)methoxy)-3-carboxamidyl)methyl)furan-2-yl)phenyl)isoindoline-1-one], in data set [1], the “Wavelength enhanced multiple compared to normal saline-treated group, Average value” was found to be 1.38; the “Wavelength enhanced multiple compared to normal saline-treated group, a-wave” value stood at 1.45; the “Wavelength enhanced multiple compared to normal saline-treated group, b-wave” value stood at 1.31. Besides, in data set [2], the IC50 is 4.76 µM. The same compound gave an IC50 in data set [3] of 9.5 µM.

These data come from patent publication EP4613329A1, “COMPOUND FOR INHIBITING BRD PROTEIN” (Benobio Co., Ltd., priority 2024, dated 2025).
